Biological target: T1, cIAP1 BIR3 domain (Homo sapiens, UniProt Q13490)
T1 construct: gene BIRC2; isolated purified BIR3 domain
Assay: fluorescence polarization assay
Settings: read-out: cIAP1 BIR3 binding (Ki, nmol/l)
Text: fluorescence polarization assay on cIAP1 BIR3 domain

T1 sequence (Q13490 260-352 limits assumed): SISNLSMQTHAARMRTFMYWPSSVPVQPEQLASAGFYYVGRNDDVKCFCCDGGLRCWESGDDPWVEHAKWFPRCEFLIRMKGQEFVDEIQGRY

Ki [nmol/L]	SMILES
~1	CC[C@H](NC(=O)[C@H](C)NC)C(=O)N1C[C@@H](O)C[C@H]1Cc1c[nH]c2cc(F)ccc12 [M1]
~1	CN[C@@H](C)C(=O)N[C@H](C(=O)N1C[C@@H](O)C[C@H]1Cc1c[nH]c2cc(F)ccc12)[C@@H](C)OC [M2]
~1	CN[C@@H](C)C(=O)N[C@H](C(=O)N1C[C@@H](O)C[C@H]1Cc1c[nH]c2cc(F)ccc12)C(C)(C)C [M3]

Continued, compound first:

SMILES	Ki [nmol/L]
CN[C@@H](C)C(=O)N[C@H](C(=O)N1C[C@@H](O)C[C@H]1Cc1c(-c2[nH]c3cc(F)ccc3c2C[C@@H]2C[C@H](O)CN2C(=O)[C@@H](NC(=O)[C@H](C)NC)[C@@H](C)OC)[nH]c2cc(F)ccc12)[C@@H](C)OC [B2]	~1
CN[C@@H](C)C(=O)N[C@H](C(=O)N1C[C@@H](O)C[C@H]1Cc1c(-c2[nH]c3cc(F)ccc3c2C[C@@H]2C[C@H](O)CN2C(=O)[C@@H](NC(=O)[C@H](C)NC)C(C)(C)C)[nH]c2cc(F)ccc12)C(C)(C)C [B3]	~1

— article PMC5238498, “Bivalent IAP antagonists, but not monovalent IAP antagonists, inhibit TNF-mediated NF-κB signaling by degrading TRAF2-associated cIAP1 in cancer cells” (Cell Death Discovery, 2017)
